Laboratory results reported in patent US11078228B2, “Ectonucleotidase inhibitors and methods of use thereof” (Calithera Biosciences, Inc., priority 2018, dated 2021).

What follows are compounds tested against recombinant CD73 (Homo sapiens (Human), UniProt P21589) (assay: Assay 2: Inhibition of the CD73 enzyme in vitro (0.05 nM CD73, 1 hour 37° C., Malachite Green)). Conditions: 0.05 nM CD73, 50 μM AMP, 1 hour at 37° C.
Assay type: biochemical
Procedure, shortened: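 Free phosphate was quantified from absorbance at 630 nm against a phosphate standard curve. This was read 5 min after Malachite Green was added at room temperature. Beforehand, the recombinant soluble enzyme reacted for 1 hour at 37° C.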

Chain of recombinant CD73 (P21589 27-547): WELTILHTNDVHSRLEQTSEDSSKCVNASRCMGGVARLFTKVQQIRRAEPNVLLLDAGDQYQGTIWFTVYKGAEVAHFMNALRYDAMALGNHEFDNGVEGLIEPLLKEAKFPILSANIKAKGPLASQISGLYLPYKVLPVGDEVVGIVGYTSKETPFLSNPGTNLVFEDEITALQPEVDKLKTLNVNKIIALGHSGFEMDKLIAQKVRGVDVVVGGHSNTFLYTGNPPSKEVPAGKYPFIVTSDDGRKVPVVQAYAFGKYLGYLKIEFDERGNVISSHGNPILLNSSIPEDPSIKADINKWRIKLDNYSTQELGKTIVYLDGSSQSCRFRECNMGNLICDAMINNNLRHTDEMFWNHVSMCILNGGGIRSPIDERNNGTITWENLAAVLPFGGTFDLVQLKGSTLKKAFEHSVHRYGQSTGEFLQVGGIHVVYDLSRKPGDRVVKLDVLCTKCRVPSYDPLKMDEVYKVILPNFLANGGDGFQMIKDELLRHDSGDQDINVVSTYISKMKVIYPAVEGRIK

Point of comparison: C#C[C@@]1(O)[C@@H](COC(Cc2ccc(-c3ccc[nH]c3=O)cc2)(C(=O)O)C(=O)O)O[C@@H](n2cnc3c(N)nc(Cl)nc32)[C@@H]1O [Example 12, 2-(((2R,3S,4R,5R)-5-(6-amino-2-chloro-9H-purin-9-yl)-3-ethynyl-3,4-dihydroxytetrahydrofuran-2-yl)methoxy)-2-(4-(2-oxo-1,2-dihydropyridin-3-yl)benzyl)malonic acid], IC50 0.1 nM. Against it:
- C#C[C@@]1(O)[C@@H](COC(Cc2ccccc2)(C(=O)O)C(=O)O)O[C@@H](n2cnc3c(NC4(CO)CC4)nc(Cl)nc32)[C@@H]1O [Example 43, 2-benzyl-2-(((2R,3S,4R,5R)-5-(2-chloro-6-((1-(hydroxymethyl)-cyclopropyl)amino)-9H-purin-9-yl)-3-ethynyl-3,4-dihydroxytetrahydrofuran-2-yl)methoxy)malonic acid] — 20-fold higher, 2 nM
- C#C[C@@]1(O)[C@@H](COC(Cc2ccccc2)(C(=O)O)C(=O)O)O[C@@H](n2cnc3c(N4CC[C@H](O)C4)nc(Cl)nc32)[C@@H]1O [Example 65, 2-benzyl-2-(((2R,3S,4R,5R)-5-(2-chloro-6-((S)-3-hydroxypyrrolidin-1-yl)-9H-purin-9-yl)-3-ethynyl-3,4-dihydroxytetrahydrofuran-2-yl)methoxy)malonic acid] — 10-fold higher, 1 nM
- C#C[C@@]1(O)[C@@H](COC(Cc2ccccc2)(C(=O)O)C(=O)NC)O[C@@H](n2cnc3c(NCC4CC4)nc(Cl)nc32)[C@@H]1O (stereo partly drawn) [Example 106, 2-benzyl-2-(((2R,3S,4R,5R)-5-(2-chloro-6-((cyclopropylmethyl)amino)-9H-purin-9-yl)-3-ethynyl-3,4-dihydroxytetrahydrofuran-2-yl)methoxy)-3-(methylamino)-3-oxopropanoic acid] — 3000-fold higher, 296 nM
- C#C[C@@]1(O)[C@@H](COC(Cc2ccc(NCCN(C)CC(=O)O)cc2)(C(=O)O)C(=O)O)O[C@@H](n2cnc3c(N)nc(Cl)nc32)[C@@H]1O [Example 155, 2-(((2R,3S,4R,5R)-5-(6-amino-2-chloro-9H-purin-9-yl)-3-ethynyl-3,4-dihydroxytetrahydrofuran-2-yl)methoxy)-2-(4-((2-((carboxymethyl)(methyl)amino)ethyl)amino)benzyl)malonic acid] — 20-fold higher, 2 nM
- C#C[C@@]1(O)[C@@H](COC(Cc2ccccc2)(C(=O)O)C(=O)O)O[C@@H](n2cnc3c(NCC4(O)CCC4)nc(Cl)nc32)[C@@H]1O [Example 40, 2-benzyl-2-(((2R,3S,4R,5R)-5-(2-chloro-6-(((1-hydroxycyclobutyl)-methyl)amino)-9H-purin-9-yl)-3-ethynyl-3,4-dihydroxytetrahydrofuran-2-yl)methoxy)malonic acid] — 30-fold higher, 3 nM
- C#C[C@@]1(O)[C@@H](COC(Cc2ccccc2)(C(=O)O)C(=O)O)O[C@@H](n2cnc3c(NCC4(O)CC4)nc(Cl)nc32)[C@@H]1O [Example 44, 2-benzyl-2-(((2R,3S,4R,5R)-5-(2-chloro-6-(((1-hydroxycyclopropyl)-methyl)amino)-9H-purin-9-yl)-3-ethynyl-3,4-dihydroxytetrahydrofuran-2-yl)methoxy)malonic acid] — 620-fold higher, 62 nM
- C#C[C@@]1(O)[C@@H](COC(Cc2ccccc2)(C(=O)O)C(=O)O)O[C@@H](n2cnc3c(N(C)C)nc(Cl)nc32)[C@@H]1O [Example 89, 2-benzyl-2-(((2R,3S,4R,5R)-5-(2-chloro-6-(dimethylamino)-9H-purin-9-yl)-3-ethynyl-3,4-dihydroxytetrahydrofuran-2-yl)methoxy)malonic acid] — 11-fold higher, 1.1 nM
- C#C[C@@]1(O)[C@@H](COC(Cc2ccc(N3CCCNC3=O)cc2)(C(=O)O)c2cscn2)O[C@@H](n2cnc3c(NC(C)C)nc(Cl)nc32)[C@@H]1O (stereo partly drawn) [Example 176, 2-(((2R,3S,4R,5R)-5-(2-chloro-6-(isopropylamino)-9H-purin-9-yl)-3-ethynyl-3,4-dihydroxytetrahydrofuran-2-yl)methoxy)-3-(4-(2-oxotetrahydropyrimidin-1(2H)-yl)phenyl)-2-(thiazol-4-yl)propanoic acid] — 50-fold higher, 5 nM
- C#C[C@@]1(O)[C@@H](COC(Cc2ccc(-c3cccn(C)c3=O)cc2)(C(=O)O)C(=O)O)O[C@@H](n2cnc3c(N)nc(Cl)nc32)[C@@H]1O [Example 162, 2-(((2R,3S,4R,5R)-5-(6-amino-2-chloro-9H-purin-9-yl)-3-ethynyl-3,4-dihydroxytetrahydrofuran-2-yl)methoxy)-2-(4-(1-methyl-2-oxo-1,2-dihydropyridin-3-yl)benzyl)malonic acid] — 4.2-fold higher, 0.42 nM
- C#C[C@@]1(O)[C@@H](COC(Cc2ccccc2)(C(=O)O)C(=O)O)O[C@@H](n2cnc3c(N[C@@H](C)c4ccccc4)nc(Cl)nc32)[C@@H]1O [Example 63, 2-benzyl-2-(((2R,3S,4R,5R)-5-(2-chloro-6-(((S)-1-phenylethyl)amino)-9H-purin-9-yl)-3-ethynyl-3,4-dihydroxytetrahydrofuran-2-yl)methoxy)malonic acid] — 10-fold higher, 1 nM
- C#C[C@@]1(O)[C@@H](COC(C(=O)O)C(=O)O)O[C@@H](n2cnc3c(NCc4ccccc4)nc(Cl)nc32)[C@@H]1O [Example 118, 2-(((2R,3S,4R,5R)-5-(6-(benzylamino)-2-chloro-9H-purin-9-yl)-3-ethynyl-3,4-dihydroxytetrahydrofuran-2-yl)methoxy)malonic acid] — 480-fold higher, 48 nM
- C#C[C@@]1(O)[C@@H](COC(Cc2ccc(N3CCCNC3=O)cc2)(C(=O)O)C(=O)O)O[C@@H](n2cnc3c(NC(C)C)nc(Cl)nc32)[C@@H]1O [Example 140, 2-(((2R,3S,4R,5R)-5-(2-chloro-6-(isopropylamino)-9H-purin-9-yl)-3-ethynyl-3,4-dihydroxytetrahydrofuran-2-yl)methoxy)-2-(4-(2-oxotetrahydropyrimidin-1(2H)-yl)benzyl)malonic acid] — 2.9-fold higher, 0.29 nM
- C#C[C@@]1(O)[C@@H](COC(Cc2ccccc2)(C(=O)O)C(=O)O)O[C@@H](n2cnc3c(N[C@H](C)c4ccccc4)nc(Cl)nc32)[C@@H]1O [Example 62, 2-benzyl-2-(((2R,3S,4R,5R)-5-(2-chloro-6-(((R)-1-phenylethyl)amino)-9H-purin-9-yl)-3-ethynyl-3,4-dihydroxytetrahydrofuran-2-yl)methoxy)malonic acid] — 20-fold higher, 2 nM
- C#C[C@@]1(O)[C@@H](COC(Cc2ccccc2)(C(=O)O)C(=O)O)O[C@@H](n2cnc3c(NC4CC4)nc(Cl)nc32)[C@@H]1O [Example 83, 2-benzyl-2-(((2R,3S,4R,5R)-5-(2-chloro-6-(cyclopropylamino)-9H-purin-9-yl)-3-ethynyl-3,4-dihydroxytetrahydrofuran-2-yl)methoxy)malonic acid] — 10-fold higher, 1 nM
- C#C[C@@]1(O)[C@@H](COC(Cc2ccncc2)(C(=O)O)C(=O)O)O[C@@H](n2cnc3c(N)nc(Cl)nc32)[C@@H]1O [Compound 7, 2-(((2R,3S,4R,5R)-5-(6-amino-2-chloro-9H-purin-9-yl)-3-ethynyl-3,4-dihydroxytetrahydrofuran-2-yl)methoxy)-2-(pyridin-4-ylmethyl)malonic acid] — 80-fold higher, 8 nM
- C#C[C@@]1(O)[C@@H](COC(Cc2ccccc2)(C(=O)O)C(=O)OCC)O[C@@H](n2cnc3c(N)nc(C(N)=O)nc32)[C@@H]1O (stereo partly drawn) [Example 121, 2-(((2R,3S,4R,5R)-5-(6-amino-2-carbamoyl-9H-purin-9-yl)-3-ethynyl-3,4-dihydroxytetrahydrofuran-2-yl)methoxy)-2-benzyl-3-ethoxy-3-oxopropanoic acid] — 17000-fold higher, 1710 nM
- C#C[C@@]1(O)[C@@H](COC(C(=O)O)S(=O)(=O)c2ccccc2)O[C@@H](n2cnc3c(N4CCOCC4)nc(Cl)nc32)[C@@H]1O (stereo partly drawn) [Example 119, 2-(((2R,3S,4R,5R)-5-(2-chloro-6-morpholino-9H-purin-9-yl)-3-ethynyl-3,4-dihydroxytetrahydrofuran-2-yl)methoxy)-2-(phenylsulfonyl)acetic acid] — 46000-fold higher, 4610 nM
- C#C[C@@]1(O)[C@@H](COC(Cc2ccsc2)(C(=O)O)C(=O)O)O[C@@H](n2cnc3c(NCCO)nc(Cl)nc32)[C@@H]1O [Example 32, 2-(((2R,3S,4R,5R)-5-(2-chloro-6-((2-hydroxyethyl)amino)-9H-purin-9-yl)-3-ethynyl-3,4-dihydroxytetrahydrofuran-2-yl)methoxy)-2-(thiophen-3-ylmethyl)malonic acid] — 30-fold higher, 3 nM
- C#C[C@@]1(O)[C@@H](COC(Cc2ccccc2)(C(=O)O)C(=O)O)O[C@@H](n2cnc3c(NCCc4ccccc4)nc(Cl)nc32)[C@@H]1O [Example 70, 2-benzyl-2-(((2R,3S,4R,5R)-5-(2-chloro-6-(phenethylamino)-9H-purin-9-yl)-3-ethynyl-3,4-dihydroxytetrahydrofuran-2-yl)methoxy)malonic acid] — 10-fold higher, 1 nM
- C#C[C@@]1(O)[C@@H](COC(Cc2ccccc2)(C(=O)O)C(=O)O)O[C@@H](n2cnc3c(NCc4ccccc4F)nc(Cl)nc32)[C@@H]1O [Example 67, 2-benzyl-2-(((2R,3S,4R,5R)-5-(2-chloro-6-((2-fluorobenzyl)amino)-9H-purin-9-yl)-3-ethynyl-3,4-dihydroxytetrahydrofuran-2-yl)methoxy)malonic acid] — 8-fold higher, 0.8 nM
- C#C[C@@]1(O)[C@@H](COC(Cc2ccc(N3CCCNC3=O)cc2)(C(=O)O)C(=O)O)O[C@@H](n2cnc3c(NCc4ccc(OC)cc4OC)cc(Cl)nc32)[C@@H]1O [Example 156, 2-(((2R,3S,4R,5R)-5-(5-chloro-7-((2,4-dimethoxybenzyl)amino)-3H-imidazo[4,5-b]pyridin-3-yl)-3-ethynyl-3,4-dihydroxytetrahydrofuran-2-yl)methoxy)-2-(4-(2-oxotetrahydropyrimidin-1 (2H)-yl)benzyl)malonic acid] — within 1.5-fold, 0.14 nM
- C#C[C@@]1(O)[C@@H](COC(Cc2ccc(-c3cccn(CCOC)c3=O)cc2)(C(=O)O)C(=O)O)O[C@@H](n2cnc3c(N)nc(Cl)nc32)[C@@H]1O [Example 146, 2-(((2R,3S,4R,5R)-5-(6-amino-2-chloro-9H-purin-9-yl)-3-ethynyl-3,4-dihydroxytetrahydrofuran-2-yl)methoxy)-2-(4-(1-(2-methoxyethyl)-2-oxo-1,2-dihydropyridin-3-yl)benzyl)malonic acid] — 4.1-fold higher, 0.41 nM
